Results reported in patent publication EP0016703A1, “Lysine salt of (+/-) 3-amino-4-(1-pyrrolyl)-alpha-methylphenyl-acetic acid, process for its preparation and pharmaceutical composition containing it” (LIPHA, LYONNAISE INDUSTRIELLE PHARMACEUTIQUE, priority 1979, dated 1980).
Where two headings read alike, the source gives them in different places.

Assays:
[1] = system: contractions douloureuses; experiment: Analgesic activity, acetic acid writhing test (Koster et al.); type: in vivo; conditions: souris, Administration P.O, dose that reduces the number of painful contractions by 50 %
Excerpt: B - L'activité analgésique a été déterminée chez 1a souris par la méthode de KOSTER et Col. (Fed. Proc. 1959, 18, 412). On détermine la dose efficace 50, dose qui administrée P.O. diminue de 50 % le nombre des contractions douloureuses déclenchées par l'injection in- trapéritonéale d'une solution diluée d'acide acétique.

in vivo = conditions: in vivo
Excerpt: (§1) A - La DL 50 a été déterminée chez la souris et le rat par les voies orale et I.V., selon MILLER et TAINTER (Proc. Soc. Exp. Biol. Medecine, 1944, 57, 261.

oedème à la carragénine = experiment: Anti-inflammatory activity, carrageenan oedema test (Winter et al.); type: in vivo; conditions: Administration P.O, dose that inhibits the oedema by 30 %; for ED30: Rattus norvegicus, po, read-out: Oedème à la carra-génine DE.30
Excerpt: C - L'activité anti-inflammatoire a été démontrée par le test de l'oedème à la carragénine, selon WINTER et Col. (Proc. Exp. Biol. Med., 1962, 111, 544. On recherche .la protection que confère le traitement par le pro- duit administré P.O. au rat, vis à vis d'un oedème déclenché par injection sous la voûte plantaire, d'une suspension de carragénine. La dose efficace 30 est celle qui inhibe l'oedème de 30 %.

érythème aux U.V. = experiment: Protection against early inflammation, UV erythema method (Winder et al.); type: in vivo; conditions: cobaye albinos, Administration P.O, dose that moderates erythema intensity by 50 %; for ED50: Cavia porcellus, po, read-out: Erythème aux U.V. DE.50
Excerpt: D - L'activité protectrice vis-à-vis de l'inflammation précoce a été mise en évidence sur le cobaye albinos selon la méthode de l'érythème aux U.V. (WINDER et Col., Arch. Int. Pharmacodyn. 1958, 116, 261). La dose efficace 50 est la dose qui.donnée P.O., modère de 50 % l'intensité de l'érythème induit par exposition à un rayonnement U.V. de la surface dorsale épilée des cobayes.

Solubility in water = type: physicochemical
souris = experiment: in vivo; conditions: P.O.
Excerpt: as §1

rat = experiment: in vivo
Excerpt: as §1

**Q.** For CC(C(=O)O)c1ccc(-n2cccc2)c(N)c1 (racemic) [Composé B, acide (±) amino-3 (pyrrolyl-1') -4α- méthyl phényl acétique], which “Acide acétique DE.50” value [1] is on record?
**A.** 19 mg/kg

**Q.** What about the LD50 (in vivo; mouse, po, souris, P.O., read-out: DL. 50 souris P.O.) of the same compound?
**A.** 3000 mg/kg

**Q.** What about the LD50 (in vivo; rat, po, P.O., read-out: DL. 50 rat P.O.) of the same compound?
**A.** 392 ± 50 mg/kg

**Q.** And the ED30 (oedème à la carragénine)?
**A.** 12 mg/kg

**Q.** And the ED50 (érythème aux U.V.)?
**A.** 4.7 mg/kg

**Q.** Which “solubilité dans l'eau” value (Solubility in water) does the source give for CC(C(=O)O)c1ccc(-n2cccc2)c(N)c1 (racemic) [Composé C, sel de (±) lysine de l'acide (±) amino-3 (pyrrolyl-l')-4 α- méthyl phénylacétique] here?
**A.** parfaite solubilité dans l'eau

**Q.** And the “Acide acétique DE.50” value [1]?
**A.** 42 mg/kg

**Q.** And the “DL. 50 souris P.O.” value (souris)?
**A.** >3200 mg/kg

**Q.** And the LD50 (in vivo; mouse, iv, souris, I.V., read-out: DL. 50 souris I.V.)?
**A.** > 1600 mg/kg

**Q.** And the “DL. 50 rat P.O.” value (rat)?
**A.** 697 ± 103 mg/kg

**Q.** What about the “Oedème à la carra-génine DE.30” value (oedème à la carragénine; rat) of the same compound?
**A.** 15 mg/kg

**Q.** And the “Erythème aux U.V. DE.50” value (érythème aux U.V.)?
**A.** 4,8 mg/kg

**Q.** Which results are given for CCCCC1C(=O)N(c2ccccc2)N(c2ccccc2)C1=O [Phénylbuta-zone, butyl-4 diphényl-1,2 pyrazolidine dione-3,5]?
**A.** ED50 ([1]; Mus musculus, po, read-out: Acide acétique DE.50): 93 mg/kg; ED30 (oedème à la carragénine): 35 mg/kg; ED50 (érythème aux U.V.): 3.7 mg/kg
